Reference: PubChem BioAssay (NCI)
In brackets after ≈: the same amount, converted by molar mass.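 Five concentrations, 48 hours, 96-well plates. At the GI50, growth is halved. Definition used: TGI = concentration required for complete inhibition of growth.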

What was measured:
Assay in all cases: growth of human tumour cells (NCI), 48 h
[1] = test system: U251 CNS
[2] = test system: HOP-62 NSCLC
[3] = test system: SW-620 colon
[4] = test system: CCRF-CEM leukemia
[5] = test system: UO-31 renal
[6] = test system: 786-0 renal
[7] = test system: MCF7 breast
[8] = test system: HCT-116 colon
[9] = test system: UACC-257 melanoma
[10] = test system: UACC-62 melanoma
[11] = test system: KM12 colon
[12] = test system: SF-295 CNS
[13] = test system: OVCAR-3 ovarian
[14] = test system: SF-539 CNS
[15] = test system: CAKI-1 renal
[16] = test system: OVCAR-8 ovarian
[17] = test system: OVCAR-5 ovarian
[18] = test system: SK-MEL-2 melanoma
[19] = test system: NCI-H460 lung
[20] = test system: TK-10 renal
[21] = test system: MDA-MB-435
[22] = test system: NCI-H226 lung
[23] = test system: SN12C renal
[24] = test system: SK-MEL-5 melanoma
[25] = test system: PC-3 prostate
[26] = test system: BT-549 breast
[27] = test system: MALME-3M melanoma
[28] = test system: RPMI-8226 leukemia
[29] = test system: SF-268 CNS
[30] = test system: SK-OV-3 ovarian
[31] = test system: M14 melanoma
[32] = test system: MDA-MB-231 breast
[33] = test system: HOP-92 NSCLC
[34] = test system: A498 renal
[35] = test system: MOLT-4 leukemia
[36] = test system: COLO 205 colon
[37] = test system: SR leukemia
[38] = test system: NCI-H23 lung
[39] = test system: ACHN renal
[40] = test system: SK-MEL-28 melanoma

c1ccc(CSCCNCCN(CCNCCSCc2ccccc2)CCNCCSCc2ccccc2)cc1
GI50 [1]: 1520 nM
TGI [1]: 2850 nM
GI50 [2]: 1490 nM
TGI [2]: 2830 nM
GI50 [3]: 1780 nM
TGI [3]: 3210 nM
GI50 [4]: 1540 nM
TGI [4]: 3060 nM
GI50 [5]: 1780 nM
TGI [5]: 3230 nM
GI50 [6]: 1530 nM
TGI [6]: 2940 nM
GI50 [7]: 363 nM
TGI [7]: 803 nM
GI50 [8]: 183 nM
TGI [8]: 340 nM
GI50 [9]: 1770 nM
TGI [9]: 3310 nM
GI50 [10]: 1770 nM
TGI [10]: 3160 nM
GI50 [11]: 1100 nM
TGI [11]: 2410 nM
GI50 [12]: 4170 nM
TGI [12]: 20500 nM
GI50 [13]: 4230 nM
TGI [13]: 18300 nM
GI50 [14]: 2140 nM
TGI [14]: 3580 nM
GI50 [15]: 3350 nM
TGI [15]: 14300 nM
GI50 [16]: 1570 nM
TGI [16]: 3020 nM
GI50 [17]: 1760 nM
TGI [17]: 3190 nM
GI50 [18]: 1600 nM
TGI [18]: 3110 nM
GI50 [19]: 1370 nM
TGI [19]: 2710 nM
GI50 [20]: 1590 nM
TGI [20]: 2940 nM
GI50 [21]: 5370 nM
TGI [21]: 18900 nM
GI50 [22]: 1780 nM
TGI [22]: 3280 nM
GI50 [23]: 1440 nM
TGI [23]: 2770 nM
GI50 [24]: 1720 nM
TGI [24]: 3120 nM
GI50 [25]: 1660 nM
TGI [25]: 3210 nM
GI50 [26]: 1800 nM
TGI [26]: 3220 nM
GI50 [27]: 1840 nM
TGI [27]: 3410 nM
GI50 [28]: 337 nM
TGI [28]: 1030 nM
GI50 [29]: 1530 nM
TGI [29]: 2960 nM
GI50 [30]: 1940 nM
TGI [30]: 3430 nM
GI50 [31]: 1310 nM
TGI [31]: 2650 nM
GI50 [32]: 1560 nM
TGI [32]: 2940 nM

N#Cc1cc2c(N)ncnc2nc1N1CCCC1
GI50 [33]: 57.2 µg/mL (≈ 238 µM)
GI50 [5]: 45.7 µg/mL
GI50 [34]: 36.9 µg/mL (≈ 154 µM)
GI50 [35]: 85.2 µg/mL (≈ 355 µM)
GI50 [36]: 83.6 µg/mL (≈ 348 µM)
GI50 [26]: 49.3 µg/mL
GI50 [30]: 54.4 µg/mL
GI50 [31]: 48.4 µg/mL
GI50 [37]: 66.4 µg/mL (≈ 276 µM)

CC(=O)O[C@H]1CC[C@]2(C)[C@H]3CC=C4[C@@H]5CC(C)(C)CC[C@]5(C(=O)NCCNCCNCCN)CC[C@@]4(C)[C@]3(C)CC[C@H]2C1(C)C
GI50 [38]: 1800 nM
TGI [38]: 3570 nM
GI50 [10]: 1740 nM
TGI [10]: 3180 nM
GI50 [13]: 1760 nM
TGI [13]: 3240 nM
GI50 [14]: 1690 nM
TGI [14]: 3170 nM
GI50 [17]: 1670 nM
TGI [17]: 3130 nM
GI50 [21]: 1670 nM
TGI [21]: 3100 nM
GI50 [22]: 2180 nM
TGI [22]: 4990 nM
GI50 [23]: 1780 nM
TGI [23]: 3370 nM
GI50 [39]: 1750 nM
TGI [39]: 3140 nM
GI50 [40]: 1740 nM
TGI [40]: 3210 nM
GI50 [32]: 1530 nM
TGI [32]: 3040 nM
